We go through three compounds from ChEMBL document CHEMBL3792317, “Novel tetrazoloquinoline-rhodanine conjugates: Highly efficient synthesis and biological evaluation” (Bioorg Med Chem Lett, 2016).

Values after ≈ are worked out from the molar mass of the structure shown. Active and inactive are the calls of the source. The calls are words filed in the database; no cut-off is given here. Bounds are passed on as bounds.

Series [1] concerns Mycobacterium tuberculosis. Description: Antitubercular activity against Mycobacterium tuberculosis H37Ra ATCC 25177 incubated for 40 mins by XTT Reduction Menadione Assay. The class given is functional. The note with it: H37Ra ATCC 25177, 40 min.
Series [2] is described as follows: Antitubercular activity against Mycobacterium bovis BCG ATCC 35743 incubated for 40 mins by XTT Reduction Menadione Assay. The class given is functional, Mycobacterium bovis BCG str. ATCC 35743. Particulars: Mycobacterium tuberculosis variant bovis BCG, ATCC 35743, 40 min.
For series [3], the system named is Mycobacterium tuberculosis. Description: Antitubercular activity against dormant Mycobacterium tuberculosis H37Ra ATCC 25177 incubated for 40 mins by XTT Reduction Menadione Assay. It is filed as functional. Particulars: H37Ra ATCC 25177, 40 min.
Series [4] relates to Mycobacterium tuberculosis. As to the kind of experiment: Antitubercular activity against active Mycobacterium tuberculosis H37Ra ATCC 25177 incubated for 40 mins by XTT Reduction Menadione Assay. The class given is functional. Particulars: H37Ra ATCC 25177, 40 min.
Series [5] deals with Mycobacterium bovis BCG str. ATCC 35743. As to the kind of experiment: Antitubercular activity against dormant Mycobacterium bovis BCG ATCC 35743 incubated for 40 mins by XTT Reduction Menadione Assay. It is filed as functional.
Series [6] has the same test system. Description: Antitubercular activity against active Mycobacterium bovis BCG ATCC 35743 incubated for 40 mins by XTT Reduction Menadione Assay. The class given is functional.
Series [7] can be described thus: (§1) Cytotoxicity against human HeLa cells after 48 hrs by MTT assay. The class given is cell-based. The note with it: HeLa cells.
Series [8] in a line: Cytotoxicity against human PANC1 cells after 48 hrs by MTT assay. The class given is cell-based, PANC-1. Particulars: for GI50 at 48 h: PANC1 cells.
The nature of series [9]: (§2) Cytotoxicity against human A549 cells after 48 hrs by MTT assay. The class given is cell-based. The note with it: A549 cells.
Series [10] in a line: Cytotoxicity against human THP1 cells after 48 hrs by MTT assay. It is filed as cell-based, THP-1. The note with it: for GI50 at 48 h: THP1 cells.
A short description of series [11]: Selectivity index, ratio of GI50 for human HeLa cells to MIC for Mycobacterium tuberculosis H37Ra ATCC 25177. It is filed as toxicity, cell-based. The note with it: read-out: Selectivity Index.
Series [12] in a line: Selectivity index, ratio of GI50 for human HeLa cells to MIC for Mycobacterium bovis BCG ATCC 35743. The class given is toxicity, cell-based. The note with it: read-out: Selectivity Index.
The nature of series [13]: Selectivity index, ratio of GI50 for human PANC1 cells to MIC for Mycobacterium tuberculosis H37Ra ATCC 25177. The note with it: read-out: Selectivity Index. The class given is toxicity, cell-based, PANC-1.
Series [14] in a line: Selectivity index, ratio of GI50 for human PANC1 cells to MIC for Mycobacterium bovis BCG ATCC 35743. It is filed as toxicity, cell-based, PANC-1. The note with it: read-out: Selectivity Index.
Series [15] can be described thus: Selectivity index, ratio of GI50 for human A549 cells to MIC for Mycobacterium tuberculosis H37Ra ATCC 25177. It is filed as toxicity, cell-based. Particulars: read-out: Selectivity Index.
Series [16] in a line: Selectivity index, ratio of GI50 for human A549 cells to MIC for Mycobacterium bovis BCG ATCC 35743. The note with it: read-out: Selectivity Index. The class given is toxicity, cell-based.
A short description of series [17]: Selectivity index, ratio of GI50 for human THP1 cells to MIC for Mycobacterium tuberculosis H37Ra ATCC 25177. The note with it: read-out: Selectivity Index. The class given is toxicity, cell-based, THP-1.
A short description of series [18]: Selectivity index, ratio of GI50 for human THP1 cells to MIC for Mycobacterium bovis BCG ATCC 35743. The class given is toxicity, cell-based, THP-1. Particulars: read-out: Selectivity Index.
The next series has as its system Candida albicans. As to the kind of experiment: Antifungal activity against Candida albicans NCIM 3471 after 48 hrs by agar cup plate method. The note with it: NCIM 3471, 48 h. The class given is functional.
Another series relates to Fusarium oxysporum. Description: Antifungal activity against Fusarium oxysporum NCIM 1332 after 48 hrs by agar cup plate method. The note with it: NCIM 1332, 48 h. The class given is functional.
The next series concerns Aspergillus flavus. As to the kind of experiment: Antifungal activity against Aspergillus flavus NCIM 539 after 48 hrs by agar cup plate method. The class given is functional. The note with it: NCIM 539, 48 h.
The subject of the next series is Aspergillus niger. As to the kind of experiment: Antifungal activity against Aspergillus niger NCIM 1196 after 48 hrs by agar cup plate method. It is filed as functional. Particulars: NCIM 1196, 48 h.
In series [19] the test system is Cryptococcus neoformans. Description: Antifungal activity against Cryptococcus neoformans NCIM 576 up to 200 ug/ml after 48 hrs by agar cup plate method. The class given is functional, organism-based.
The test system of series [20] is Mycobacterium tuberculosis. As to the kind of experiment: Antitubercular activity against Mycobacterium tuberculosis H37Ra ATCC 25177 at 30 ug/ml incubated for 40 mins by XTT Reduction Menadione Assay. The class given is functional. Particulars: H37Ra ATCC 25177, 40 min, read-out: GI.
Series [21] relates to Mycobacterium tuberculosis. As to the kind of experiment: Antitubercular activity against Mycobacterium tuberculosis H37Ra ATCC 25177 at 10 ug/ml incubated for 40 mins by XTT Reduction Menadione Assay. The class given is functional. Particulars: H37Ra ATCC 25177, 40 min, read-out: GI.
For series [22], the system named is Mycobacterium tuberculosis. Description: Antitubercular activity against Mycobacterium tuberculosis H37Ra ATCC 25177 at 3 ug/ml incubated for 40 mins by XTT Reduction Menadione Assay. The class given is functional. The note with it: H37Ra ATCC 25177, 40 min, read-out: GI.
In series [23] the test system is Mycobacterium bovis BCG str. ATCC 35743. Description: Antitubercular activity against dormant Mycobacterium bovis BCG ATCC 35743 at 30 ug/ml incubated for 40 mins by XTT Reduction Menadione Assay. The class given is functional.
Series [24] shares this test system. Description: Antitubercular activity against dormant Mycobacterium bovis BCG ATCC 35743 at 10 ug/ml incubated for 40 mins by XTT Reduction Menadione Assay. It is filed as functional.
The test system is the same in series [25]. Description: Antitubercular activity against dormant Mycobacterium bovis BCG ATCC 35743 at 3 ug/ml incubated for 40 mins by XTT Reduction Menadione Assay. The class given is functional.
For a further series, the system named is Escherichia coli. Description: Antibacterial activity against Escherichia coli after 18 hrs by broth dilution method. It is filed as functional.
The subject of another series is Pseudomonas fluorescens. As to the kind of experiment: Antibacterial activity against Pseudomonas fluorescens after 18 hrs by broth dilution method. It is filed as functional.
The test system of the next series is Staphylococcus aureus. Description: Antibacterial activity against Staphylococcus aureus after 18 hrs by broth dilution method. The class given is functional.
A further series relates to Bacillus subtilis. Description: Antibacterial activity against Bacillus subtilis after 18 hrs by broth dilution method. The class given is functional.
For series [26], the system named is Cryptococcus neoformans. Description: Antifungal activity against Cryptococcus neoformans NCIM 576 after 48 hrs by agar cup plate method. It is filed as functional. The note with it: NCIM 576, 48 h.
The subject of the next series is HeLa. The description is as §1. It is filed as cell-based. Particulars: hela, 48 h.
The subject of another series is A549. The series is described as §2. The class given is cell-based. The note with it: a549, 48 h.

With `CO[C@H]1/C=C/O[C@@]2(C)Oc3c(C)c(O)c4c(O)c(c(/C=N/N5CCN(C)CC5)c(O)c4c3C2=O)NC(=O)/C(C)=C\C=C\[C@H](C)[C@H](O)[C@@H](C)[C@@H](O)[C@@H](C)[C@H](OC(C)=O)[C@@H]1C` [RIFAMPIN], the MIC in [1] came to 0.72 µg/mL (≈ 0.875 µM); in [2], 0.89 µg/mL (≈ 1.08 µM). In addition, the concentration for an effect of 90% (IC90) in series [3] was determined as 0.72 µg/mL (≈ 0.875 µM); in series [4], 0.05 µg/mL (≈ 0.0608 µM); in series [5] it was 0.89 µg/mL (≈ 1.08 µM); in [6], 0.061 µg/mL (≈ 0.0741 µM). The GI50 at 48 h in [7], in [8], in [9] and in series [10] was > 100 µg/mL throughout. Further, the selectivity ratio was > 139 in [11]; > 112 in series [12]; > 139 in series [13]; > 112 in series [14]; > 139 in [15]; > 112 in series [16]. In addition, the values for the selectivity ratio in [17] and in series [18] were > 139 and > 112, respectively.
With `COc1ccc2cc(/C=C3\SC(=S)NC3=O)c3nnnn3c2c1`, the minimal inhibitory concentration (MIC) was > 250 µg/mL in series [1]; > 250 µg/mL in [2]; 150 µg/mL (≈ 437 µM) with Candida albicans; 100 µg/mL (≈ 291 µM) in the series with Fusarium oxysporum; 100 µg/mL (≈ 291 µM) with Aspergillus flavus; 25 µg/mL (≈ 72.8 µM) against Aspergillus niger. The minimal inhibitory concentration (MIC) was 102 µg/mL (≈ 298 µM) against Escherichia coli, 157 µg/mL (≈ 457 µM) against Pseudomonas fluorescens, 247 µg/mL (≈ 721 µM) against Staphylococcus aureus and 246 µg/mL (≈ 716 µM) with Bacillus subtilis. Besides, in the series on Cryptococcus neoformans [19], the MIC result was “inactive”. In addition, the inhibition of growth at 30 µg/mL in series [20] stood at 14.1%. Also, the inhibition of growth at 10 µg/mL in series [21] amounted to 15.6%. In addition, the inhibition of growth at 3 µg/mL in series [22] is 1.97%. The growth inhibition (GI) in series [23] is 3.63%; in [24] it was -1.87%; in series [25], -3.47%.
Take `Cc1ccc2cc(/C=C3\SC(=S)NC3=O)c3nnnn3c2c1`: the MIC in series [1] was found to be 4.5 µg/mL (≈ 13.7 µM); in series [2], 2.01 µg/mL (≈ 6.14 µM); against Candida albicans, 150 µg/mL (≈ 458 µM); in the series with Fusarium oxysporum, 150 µg/mL (≈ 458 µM); against Aspergillus flavus, 125 µg/mL (≈ 382 µM); against Aspergillus niger it was 100 µg/mL (≈ 305 µM). Besides, the MIC amounted to 100 µg/mL (≈ 305 µM) in the series with Cryptococcus neoformans [26]; 208 µg/mL (≈ 636 µM) in the series with Escherichia coli; 211 µg/mL (≈ 643 µM) against Pseudomonas fluorescens; 205 µg/mL (≈ 626 µM) against Staphylococcus aureus; 188 µg/mL (≈ 574 µM) against Bacillus subtilis. Besides, the inhibition of growth at 30 µg/mL in series [20] is 98%. Also, the inhibition of growth at 10 µg/mL in series [21] is 99.7%. Besides, the inhibition of growth at 3 µg/mL in [22] is 82.9%. Moreover, the figures for the growth inhibition (GI) in [23], in series [24] and in series [25] were 97.8%, 100% and 100%, respectively. Besides, the IC90 in [3] was determined as 4.5 µg/mL (≈ 13.7 µM); in series [4], 5.5 µg/mL (≈ 16.8 µM); in series [5], 2.01 µg/mL (≈ 6.14 µM); in series [6], 2.25 µg/mL (≈ 6.87 µM). Further, the GI50 at 48 h in series [7], in series [8], in series [9] and in [10] was > 100 µg/mL each time. In addition, the GI90 is > 100 µg/mL in the series with HeLa; > 100 µg/mL in series [8] (panc-1, 48 h); > 100 µg/mL with A549; > 100 µg/mL in series [10] (thp-1, 48 h). In addition, the selectivity ratio in [11] amounted to 22.2; in series [12] it was 49.8; in series [13], 22.2; in series [14] it was 49.8; in [15] it was 22.2; in series [16], 49.8. Besides, the selectivity ratio was 22.2 in [17] and 49.8 in series [18].
